Results taken from ChEMBL document CHEMBL3098074, “Synthesis and tumor cell growth inhibitory activity of biotinylated annonaceous acetogenins” (Eur J Med Chem, 2014).

Legend:
L1210 [1] = experiment: Selectivity index, ratio of IC50 for mouse L1210 cells to IC50 for mouse 4T1 cells; type: functional
P815 [2] = experiment: Cytotoxicity against mouse P815 cells expressing biotin receptor after 72 hrs by MTT assay; type: functional, cell-based; conditions: P815, 72 h
L1210 [3] = experiment: Cytotoxicity against mouse L1210 cells after 72 hrs by MTT assay; type: functional, cell-based; conditions: L1210, 72 h
L1210 [4] = experiment: Selectivity index, ratio of IC50 for mouse L1210 cells to IC50 for mouse P815 cells; type: functional
4T1 [5] = experiment: Cytotoxicity against mouse 4T1 cells expressing biotin receptor after 72 hrs by MTT assay; type: functional, cell-based; conditions: 4T1, 72 h
[6] = Antitumor activity against mouse HepS cells xenografted in mouse assessed as tumor growth inhibition at 30 ug/kg; type: functional; conditions: read-out: TGI
4T1 [7] = experiment: Ratio of bullatacin IC50 to compound IC50 for mouse 4T1 cells expressing biotin receptor; type: functional
P815 [8] = experiment: Ratio of bullatacin IC50 to compound IC50 for mouse P815 cells expressing biotin receptor; type: functional

Compound | Ratio IC50 (L1210 [1]) | IC50 (P815 [2]) [nM] | IC50 (L1210 [3]) [nM] | Ratio IC50 (L1210 [4]) | IC50 (4T1 [5]) [nM] | inhibition in vivo at 0.03 mg/kg [6] [%] | Ratio IC50 (4T1 [7]) | Ratio IC50 (P815 [8])
CCCCCC[C@H](O)CCC[C@H](O)[C@H]1CC[C@H]([C@H]2CC[C@H]([C@H](O)CCCCCCCCCCCCC3=C[C@H](C)OC3=O)O2)O1 [SQUAMOCIN] | 3.75 | 19800 | 1350 | 0.068 | 360 | 78 | – | –
CCCCCCCCCC[C@H](OC(=O)CCCCCNC(=O)CCCC[C@@H]1SC[C@@H]2NC(=O)N[C@@H]21)[C@H]1CC[C@H]([C@H]2CC[C@H]([C@H](O)CCCCCCCCCC[C@@H](O)CC3=C[C@H](C)OC3=O)O2)O1 | 29.46 | 410 | 1090 | 2.66 | 37 | – | 3 | 8
CCCCCCCCCC[C@H](O)[C@H]1CC[C@H]([C@H]2CC[C@H]([C@@H](CCCCCCCCCC[C@@H](O)CC3=C[C@H](C)OC3=O)OC(=O)CCCCCNC(=O)CCCC[C@@H]3SC[C@@H]4NC(=O)N[C@@H]43)O2)O1 | 6.1 | > 20000 | 1830 | <0.092 | 300 | – | – | –
CCCCCCCCCC[C@H](OC(=O)CCCCCNC(=O)CCCC[C@@H]1SC[C@@H]2NC(=O)N[C@@H]21)[C@H]1CC[C@H]([C@H]2CC[C@H]([C@H](O)CCCCCCCCCC[C@H](CC3=C[C@H](C)OC3=O)OC(=O)CCCCCNC(=O)CCCC[C@@H]3SC[C@@H]4NC(=O)N[C@@H]43)O2)O1 | 26.73 | 750 | 1470 | 1.96 | 55 | – | – | –
CCCCCC[C@H](O)CCC[C@H](OC(=O)CCCC[C@@H]1SC[C@@H]2NC(=O)N[C@@H]21)[C@H]1CC[C@H]([C@H]2CC[C@H]([C@H](O)CCCCCCCCCCCCC3=C[C@H](C)OC3=O)O2)O1 | 1.52 | > 20000 | 960 | <0.048 | 630 | – | – | –
CCCCCC[C@@H](CCC[C@H](O)[C@H]1CC[C@H]([C@H]2CC[C@H]([C@@H](CCCCCCCCCCCCC3=C[C@H](C)OC3=O)OC(=O)CCCC[C@@H]3SC[C@@H]4NC(=O)N[C@@H]43)O2)O1)OC(=O)CCCC[C@@H]1SC[C@@H]2NC(=O)N[C@@H]21 | 0.26 | > 20000 | 1250 | <0.063 | 4870 | – | – | –
CCCCCC[C@H](O)CCC[C@H](O)[C@H]1CC[C@H]([C@H]2CC[C@H]([C@@H](CCCCCCCCCCCCC3=C[C@H](C)OC3=O)OC(=O)CCCC[C@@H]3SC[C@@H]4NC(=O)N[C@@H]43)O2)O1 | 0.25 | > 20000 | 720 | <0.036 | 2910 | – | – | –
CCCCCCCCCC[C@H](O)[C@H]1CC[C@H]([C@H]2CC[C@H]([C@@H](CCCCCCCCCC[C@@H](O)CC3=C[C@H](C)OC3=O)OC(=O)CCCC[C@@H]3SC[C@@H]4NC(=O)N[C@@H]43)O2)O1 | 32.62 | 1550 | 1370 | 0.88 | 42 | – | – | –
CCCCCC[C@@H](CCC[C@H](OC(=O)CCCCCNC(=O)CCCC[C@@H]1SC[C@@H]2NC(=O)N[C@@H]21)[C@H]1CC[C@H]([C@H]2CC[C@H]([C@H](O)CCCCCCCCCCCCC3=C[C@H](C)OC3=O)O2)O1)OC(=O)CCCCCNC(=O)CCCC[C@@H]1SC[C@@H]2NC(=O)N[C@@H]21 | 0.63 | > 20000 | 1180 | <0.059 | 1870 | – | – | –
CCCCCC[C@H](O)CCC[C@H](OC(=O)CCCCCNC(=O)CCCC[C@@H]1SC[C@@H]2NC(=O)N[C@@H]21)[C@H]1CC[C@H]([C@H]2CC[C@H]([C@H](O)CCCCCCCCCCCCC3=C[C@H](C)OC3=O)O2)O1 | 0.9 | > 20000 | 1380 | <0.069 | 1540 | – | – | –
